Conditions: dog, in vivo

Substance	AUC Normalised (Relative %)	AUC Normalised (relative to the subcutaneous dose of 1.5 units)	AUC Per Dose	rank of AUC following normalisation to the doses administered
Insulin Without Zinc [Formulation B]	(8.0) %	234 uU.min/ml	773 uU.min/ml	
95% Zinc Insulin in Trehalose [Formulation C]	(6.4) %	188 uU.min/ml	625 uU.min/ml	
Zinc Insulin [Formulation A]	(4.2) %	123 uU.min/ml	657 uU.min/ml	

Next, values leading:

AUC Normalised (Relative %)	AUC Normalised (relative to the subcutaneous dose of 1.5 units)	AUC Per Dose	rank of AUC following normalisation to the doses administered	Substance
(17.0) %	495 uU.min/ml	2355 uU.min/ml	highest AUC	20% Zinc Insulin in Trehalose [Formulation D]
(100) %	2916 uU.min/ml	2916 uU.min/ml		Humulin S [Formulation E]
